# Test results as given in patent US11412737B2, “Mixtures of beflubutamid or optically enriched forms thereof with a second herbicide” (FMC Corporation, priority 2016, dated 2022).
# What was measured:
# [1] = test system: Palmer amaranth (AMAPA); assay: pre-emergence test, weed control; type: in vivo, Amaranthus palmeri; details: pre-emergent, 28 DAT, (−)-BFL >95% e.e., rate g ai/ha by row: r6 62, r7 125, r8 125, r9 250, r10 445, r11 890, r12 45, r13 90, r14 62+125, r15 125+125, r16 62+250, r17 125+250, r18 62+445, r19 125+445, r20 62+890, r21 125+890, r22 62+45, r23 125+45, r24 62+90, r25 125+90
# Experimental: (§1) Test compositions containing the test compounds were diluted with water to provide the appropriate test rate concentrations.
# (§2) For pre-emergence testing, four disposable fiber flats (6 inch by 10 inch) for each rate of application of each herbicide solution were filled with top soil, to which seeds of each species were planted in furrows made by a template pressed on the top of the soil. The furrows were covered with soil after planting the seed and were watered well before application of the test compounds.
# (§3) Fiber flats designated for treatment were placed in a spray chamber having a static platform and a movable sprayer and the height of the spray nozzle was 10.5 inches above the soil level. Once the sprayer was calibrated using water for spray volume of 30 gallons per acre, flats were sprayed with sprayer at a speed to receive a coverage equivalent of 30 gallons per acre. The application rates are those shown in the Tables below for the individual herbicidal solutions and the herbicide compositions of this invention. The pre-emergence flats were immediately placed in the greenhouse and watered lightly after treatment. Thereafter they were regularly watered and fertilized for the duration of the test.
# (§4) The control of weeds was evaluated in each experimental test at 21 for wheat and 28 days after treatment (DAT) for all species. Data were analyzed using Minitab software at 95% confidence interval. The results, shown as an average of the replications, were compared with results observed in untreated control flats in the same tests. Percent control was determined by a method similar to the 0 to 100 rating system disclosed in “Research Methods in Weed Science,” 2nd ed., B. Truelove, Ed.; Southern Weed Science Society; Auburn University, Auburn, Ala., 1977. The rating system is as follows in Table 1.
# [2] = test system: Wild oat (AVEFA); assay: pre-emergence test, weed control; type: in vivo, Avena fatua; details: pre-emergent; for percentage of weed control, AVEFA: 28 DAT; for percentage of weed control, Wild Oat AVEFA: 21 DAT, rate g ai/ha by row: r4 94, r5 125, r6 250, r7 125, r8 250, r9 500, r10 94+125, r11 125+125, r12 94+250, r13 125+250, r14 94+500, r15 125+500
# Experimental: as §1, §2, §3, §4
# [3] = test system: Green foxtail (SETVI); assay: pre-emergence test, weed control; type: in vivo, Setaria viridis; details: pre-emergent, 28 DAT
# Experimental: as §1, §2, §3, §4
# [4] = test system: crop and weed species; assay: pre-emergence test, several crop and weed species together; type: in vivo; details: pre-emergent, 28 DAT (Tables 16 and 17), >95% e.e.
# Experimental: as §1, §2
# Fiber flats designated for treatment were placed in a spray chamber having a static platform and a movable sprayer and the height of the spray nozzle was 10.5 inches above the soil level. Once the sprayer was calibrated using water for spray volume of 30 gallons per acre, flats were sprayed with sprayer at a speed to receive a coverage equivalent of 30 gallons per acre. […]
# The control of weeds was evaluated in each experimental test at 21 for wheat and 28 days after treatment (DAT) for all species. Data were analyzed using Minitab software at 95% confidence interval. […] Percent control was determined by a method similar to the 0 to 100 rating system disclosed in “Research Methods in Weed Science,” 2nd ed., B. Truelove, Ed.; Southern Weed Science Society; Auburn University, Auburn, Ala., 1977. […]
# [5] = test system: Yellow foxtail (SETLU); assay: pre-emergence test, weed control; type: in vivo; details: pre-emergent, 28 DAT
# Experimental: as §1, §2, §3, §4
# [6] = test system: Blackgrass (ALOMY); assay: pre-emergence test, weed control; type: in vivo; details: pre-emergent, 28 DAT
# Experimental: as §1, §2, §3, §4
# [7] = test system: velvetleaf (IPOHE); assay: pre-emergence test, weed control; type: in vivo; details: pre-emergent, 21 DAT, rate g ai/ha by row: r4 94, r5 125, r6 250, r7 125, r8 250, r9 500, r10 94+125, r11 125+125, r12 94+250, r13 125+250, r14 94+500, r15 125+500
# Experimental: as §1, §2, §3, §4
# [8] = test system: Velvetleaf (ABUTH); assay: pre-emergence test, weed control; type: in vivo, Abutilon theophrasti; details: pre-emergent, 21 DAT, rate g ai/ha by row: r4 94, r5 125, r6 250, r7 125, r8 250, r9 500, r10 94+125, r11 125+125, r12 94+250, r13 125+250, r14 94+500, r15 125+500
# Experimental: as §1, §2, §3, §4
# [9] = test system: Common lambsquarters (CHEAL); assay: pre-emergence test, weed control; type: in vivo, Chenopodium album; details: pre-emergent, 28 DAT, (+)-BFL >95% e.e.; rate g ai/ha by row: r6 62.5, r7 125, r8 62.5, r9 125, r10 222, r11 445, r12 22.5, r13 45, r14 62.5+62.5, r15 125+62.5, r16 62.5+125, r17 125+125, r18 62.5+222, r19 125+222, r20 62.5+445, r21 125+445, r22 62.5+22.5, r23 125+22.5, r24 62.5+45, r25 125+45
# Experimental: as §1, §2, §3, §4
# [10] = test system: Jimsonweed (DATST); assay: pre-emergence test, weed control; type: in vivo, Datura stramonium; details: pre-emergent, 28 DAT; BFL at 62.5 g, PTX at 90 g, combination of both
# Experimental: as §1, §2, §3, §4
# [11] = test system: Green foxtail (SETVI); assay: post-emergence test, weed control; type: in vivo, Setaria viridis; details: post-emergent, 28 DAT; BFL at 187.5 g, PTX at 890 g, combination of both
# Experimental: as §1
# For post-emergence testing, seeds of each species for each rate of application of each herbicide solution were planted in 7.5 cm×7.5 cm plastic pots filled with potting soil. The seeds were germinated and the resulting plants were allowed to grow in a greenhouse until they reached a growth stage, such as height, suitable for testing. Treatments were applied using compressed air in a track spray chamber at 30 gallons/acre (280 L/ha) using a TeeJet 8001E nozzle at 40 psi (2.76 bars). Pots of post-emergent treated plants were returned to the greenhouse and not watered for 24 hours after treatment. Thereafter they were regularly watered and fertilized for the duration of the test.
# as §4
# [12] = test system: Large crabgrass (DIGSA); assay: pre-emergence test, weed control; type: in vivo; details: pre-emergent, 28 DAT, rate g ai/ha by row: r4 94, r5 50, r6 100, r7 52.5, r8 70, r9 94+52.5, r10 94+70, r11 50+52.5, r12 50+70, r13 100+52.5, r14 100+70
# Experimental: as §1, §2, §3, §4
# [13] = (−)-BFL >95% e.e., rate g ai/ha by row: r6 62, r7 125, r8 125, r9 250, r10 445, r11 890, r12 45, r13 90, r14 62+125, r15 125+125, r16 62+250, r17 125+250, r18 62+445, r19 125+445, r20 62+890, r21 125+890, r22 62+45, r23 125+45, r24 62+90, r25 125+90, 62 g ai/ha
# [14] = (−)-BFL >95% e.e., rate g ai/ha by row: r6 62, r7 125, r8 125, r9 250, r10 445, r11 890, r12 45, r13 90, r14 62+125, r15 125+125, r16 62+250, r17 125+250, r18 62+445, r19 125+445, r20 62+890, r21 125+890, r22 62+45, r23 125+45, r24 62+90, r25 125+90, 125 g ai/ha
# [15] = (+)-BFL >95% e.e., rate g ai/ha by row: r6 62.5, r7 125, r8 62.5, r9 125, r10 222, r11 445, r12 22.5, r13 45, r14 62.5+62.5, r15 125+62.5, r16 62.5+125, r17 125+125, r18 62.5+222, r19 125+222, r20 62.5+445, r21 125+445, r22 62.5+22.5, r23 125+22.5, r24 62.5+45, r25 125+45, 222 g ai/ha
# [16] = (+)-BFL >95% e.e., rate g ai/ha by row: r6 62.5, r7 125, r8 62.5, r9 125, r10 222, r11 445, r12 22.5, r13 45, r14 62.5+62.5, r15 125+62.5, r16 62.5+125, r17 125+125, r18 62.5+222, r19 125+222, r20 62.5+445, r21 125+445, r22 62.5+22.5, r23 125+22.5, r24 62.5+45, r25 125+45, 445 g ai/ha
# [17] = (−)-BFL >95% e.e., rate g ai/ha by row: r6 62, r7 125, r8 125, r9 250, r10 445, r11 890, r12 45, r13 90, r14 62+125, r15 125+125, r16 62+250, r17 125+250, r18 62+445, r19 125+445, r20 62+890, r21 125+890, r22 62+45, r23 125+45, r24 62+90, r25 125+90, 445 g ai/ha
# [18] = (−)-BFL >95% e.e., rate g ai/ha by row: r6 62, r7 125, r8 125, r9 250, r10 445, r11 890, r12 45, r13 90, r14 62+125, r15 125+125, r16 62+250, r17 125+250, r18 62+445, r19 125+445, r20 62+890, r21 125+890, r22 62+45, r23 125+45, r24 62+90, r25 125+90, 890 g ai/ha
# [19] = (+)-BFL >95% e.e., rate g ai/ha by row: r6 62.5, r7 125, r8 62.5, r9 125, r10 222, r11 445, r12 22.5, r13 45, r14 62.5+62.5, r15 125+62.5, r16 62.5+125, r17 125+125, r18 62.5+222, r19 125+222, r20 62.5+445, r21 125+445, r22 62.5+22.5, r23 125+22.5, r24 62.5+45, r25 125+45
smiles,measurement,setting,value
"CC[C@H](Oc1ccc(F)c(C(F)(F)F)c1)C(=O)NCc1ccccc1 [(−)-BFL, (2S)-2-[4-fluoro-3-(trifluoromethyl)phenoxy]-N-(phenylmethyl)butanamide]","percentage of weed control, AMAPA",[1]; 62 g ai/ha,70%
same,"percentage of weed control, AMAPA",[1]; 125 g ai/ha,97%
same,"percentage of weed control, AVEFA",[2]; [13],7%
same,"percentage of weed control, AVEFA",[2]; [14],11%
same,"percentage of weed control, SETVI",[3]; [13],80%
same,"percentage of weed control, SETVI",[3]; [14],97%
same,herbicidal activity of the enantiomers compared,[4],the more active enantiomer
same,"percentage of weed control, SETLU",[5]; [13],86%
same,"percentage of weed control, SETLU",[5]; [14],100%
same,"percentage of weed control, ALOMY",[6]; [13],19%
same,"percentage of weed control, ALOMY",[6]; [14],32%
CCOCN(C(=O)CCl)c1c(C)cccc1CC [Acetochlor],"percentage of weed control, Wild Oat AVEFA",[2]; 125 g ai/ha,13%
same,"percentage of weed control, Wild Oat AVEFA",[2]; 250 g ai/ha,11%
same,"percentage of weed control, Morningglory IPOHE",[7]; 125 g ai/ha,5%
same,"percentage of weed control, Morningglory IPOHE",[7]; 250 g ai/ha,6%
same,"percentage of weed control, Morningglory IPOHE",[7]; 500 g ai/ha,8%
same,"percentage of weed control, Velvetleaf ABUTH",[8]; 125 g ai/ha,10%
same,"percentage of weed control, Velvetleaf ABUTH",[8]; 250 g ai/ha,11%
"CCOCCN(C(=O)CCl)C(=C(C)C)c1ccccc1 [PTX, Pethoxamid]","percentage of weed control, CHEAL",[9],100%
same,"percentage of weed control, AMAPA",[1]; 445 g ai/ha,98%
same,"percentage of weed control, AMAPA",[1]; 890 g ai/ha,100%
same,"percentage of weed control, AVEFA",[2]; [15],84%
same,"percentage of weed control, AVEFA",[2]; [16],92%
same,"percentage of weed control, AVEFA",[2]; [17],89%
same,"percentage of weed control, AVEFA",[2]; [18],92%
same,"percentage of weed control, SETVI",[3]; [19],99%
same,"percentage of weed control, SETVI",[3]; [17],98%
same,"percentage of weed control, SETVI",[3]; [18],100%
same,control of jimsonweed,[10],4%
same,control of green foxtail,[11],4%
same,"percentage of weed control, SETLU",[5]; [19],99%
same,"percentage of weed control, SETLU",[5]; [17],99%
same,"percentage of weed control, SETLU",[5]; [18],100%
same,"percentage of weed control, ALOMY",[6]; [15],70%
same,"percentage of weed control, ALOMY",[6]; [16],96%
same,"percentage of weed control, ALOMY",[6]; [17],59%
same,"percentage of weed control, ALOMY",[6]; [18],83%
O=C(Nc1ccc(F)cc1F)c1cccnc1Oc1cccc(C(F)(F)F)c1 [Diflufenican],"percentage of weed control, DIGSA",[12]; 50 g ai/ha,18%
same,"percentage of weed control, DIGSA",[12]; 100 g ai/ha,30%
